How the values were obtained:
progerin = assay: Mass spectrometry (MALDI-ToF) of nuclear envelope proteins, cells of progeria patients; type: cell-based, human; conditions: FTI 2.5 μM
Source text: (§1) The fibroblasts of control and Zmpste24^−/− mice as well as the cells lymphoblastoids of progeria patients have been homogenised, the nuclei isolated via ultracentrifugation and the nuclear proteins obtained as described in Blobel and Potter, V. R. Nuclei from rat liver: isolation method that combines purity with high yield, Science 154, 1662-1665, 1966. The proteins of the nuclear lamina were separated via SDS-PAGE electrophoresis, and the strips containing the lamin A, the prelamin A and the progerin were excised. The fragments of the gel were washed twice with […] of a ammonium bicarbonate/acetonitrile mixture (70/30, 25 mM), dried (15 min, 90° C.) and digested (1 h, 60° C.) with trypsin (12 ng/ml, Promega) in the ammonium bicarbonate 25 mM. […] The data collected using 200 laser firings produce spectra analysed with the Data Explorer programme (version 4.0.0.0, Applied Biosystems).
FIG. 11 legend: mass spectrometry analysis of the proteins extracted from the nuclear envelop of the untreated cells (a), of the cells of the progeria patients treated with FTI (2.5 μM, b) or treated with the mixture of pravastatin+zoledronate (1 μM apiece, c). […] Each peak corresponds to the tryptic peptide of the progerin and is marked with the measured monoisotopic mass in experiment and with the theoretical mass (between parentheses). […]

prelamin A [1] = assay: Mass spectrometry (MALDI-ToF) of nuclear envelope proteins, Zmpste24^−/− mouse fibroblasts; type: cell-based; conditions: FTI-treated Zmpste24^−/− mouse cells
Source text: as §1
FIG. 12 legend: a mass spectrometry analysis of the proteins extracted from the nuclear envelop of the untreated fibroblasts (a) or treated with a mixture of pravastatin+zoledronate (1 μM apiece, b) stemming from Zmpste24^−/− mice. […] Each peak corresponds to a tryptic peptide of the progerin and is marked with a monoisotopic mass measured the experiment and with the theoritical mass (in parentheses). […]

control fibroblasts = assay: Nuclear morphology of control mouse cells in culture; type: cell-based
Source text: (§2) The dermal fibroblasts of a control subject (GM00038) and of patients afflicted with progeria and carriers of the mutation G608G (AG11498 and AG01972) were obtained from the Coriell Cell Repository. The HeLa cells come from the American Type Culture Collection. The cells are cultivated in DMEM (Gibco) supplemented with 10% FBS (Gibco) and 1% antibiotic-antimycotic (Gibco). The fibroblasts come from tails of 12-day-old mice (Varela and al., 2005). The concentration and the duration of treatment with the statin and the aminobiphosphonate are indicated in the legende of the figures. During the combined statin+aminobiphosphonate treatment in the presence of farnesol and/or of geranylgeraniol, 1 mM of pravastatin and 1 mM of zoledronate were added to the culture medium with increasing concentrations of farnesol and/or of geranylgeraniol. The percentage of abnormal nuclei is measured 48 h after the beginning of the treatment.
(§3) Quantification of the effect of pravastatin (1 μM) and zoledronate (1 μM), alone or in combination, on the nuclear morphology of Zmpste24^−/− mouse cells (a) and control mouse cells (b) in culture, in the presence of farnesol, geranylgeraniol or both molecules.

Zmpste24^−/− mouse cells = assay: Nuclear morphology of Zmpste24^−/− mouse cells in culture; type: cell-based; conditions: pravastatin (1 μM) and zoledronate (1 μM), alone or in combination
Source text: as §2, §3

[2] = test system: cells of progeria patients; assay: Quantitative analysis of nuclear morphology of cells of progeria patients; type: cell-based, human; conditions: added to pravastatin+zoledronate, abnormal nuclei measured 48 h after beginning of treatment
Source text: as §2, with “During the combined statin+aminobiphosphonate treatment in the presence of farnesol and/or of geranylgeraniol, 1 mM of pravastatin and 1 mM of zoledronate were added to the culture medium with increasing concentrations of farnesol and/or of geranylgeraniol.” left out, “treatment. […]” for “treatment.”
The dilution of the primary antibodies is 1/100 for the goat polyclonal anti-prelamin A antibody (Sc-6214, Santa Cruz Biotechnologies), 1/40 for the anti-lamin A/C antibody (4A7 provided by G. Morris), 1/200 for the Rabbit anti-calreticulin antibody (Stressgen) and 1/100 for the B1 anti-lamin antibody (Abcam). […] Digital images are recorded with a Leica DMR microscope equipped with a CoolSnap camera or with a Leica TCS SP5 confocal microscope. […] More than 100 nuclei were analysed in the control fibroblasts for each of the treatments. The number of nuclei of cells of patients afflicted with progeria analysed is 250 (passage 8), 198 (passage 13) and 150 (passage 20). […]

prelamin A [3] = assay: Immunohistochemistry: prelamin A level in healthy cells; type: cell-based, human; conditions: Pravastatin 100 μM for 12 hours, Zoledronate 20 μM for 6 hours; in association or alone
Experimental: (§4) A cell culture is trypsinized, and the cells are counted on a Neubauer cytometer.
(§5) Labtech culture wells (Nunc, ref. 177399) are seeded in an amount of 5×10^4 cells per well.
(§6) The complete culture medium is supplemented by the treatment(s) (statin, NBP, both), and the cells are cultivated for the ad hoc time.
(§7) The cells are fixed in a paraformaldehyde 4% solution (in PBS) for 10 minutes at room temperature.
(§8) […], the cells are incubated for 5 minutes at room temperature in a humidity chamber in 50 μl of permeabilization solution:
(§9) The primary antibody is diluted to 1/100 in 50 μl of incubation solution and placed in contact with the cells for 1 hour at room temperature in a humidity chamber.
(§10) The primary antibodies used are of two types: • Mouse anti-lamin A/C (N-terminal side), clone 4A7, donated by G. Morris (Oswestry, UK) • Goat anti-prelamin A (C-terminal end 15 aa), product SC6214, Santa Cruz Biotchnology, Inc.
(§11) The incubation with the secondary antibody takes place for 1 hour in […] of incubation solution at room temperature in a humidity chamber. […]
(§12) The cells are immersed in one drop of VectaShield (Vector), covered with an object-cover slide and observed under a fluorescence microscope (Leica DMR, Leica Microsystems), equipped with a coolSNAP camera (Princeton). […]

healthy cells = assay: Immunohistochemistry: toxicity / deformed nuclei on healthy cells; type: cell-based, human; conditions: Pravastatin 100 μM for 12 hours, Zoledronate 20 μM for 6 hours; in association or alone
Experimental: as §4, §5, §6, §7, §8, §9, §10, §11, §12

Zmpste24^−/− mice = assay: Progeroid phenotype and lifespan of Zmpste24^−/− mice (Example 7); type: in vivo, mouse; conditions: daily treatment with one drug alone
Experimental: All of the experiments on mice are governed by the rules set down by the Animal Experiment Committee of the University of Oviedo (Spain). The pravastatin (100 mg/kg/day) and the zoledronate (100 mg/kg/day) diluted in PBS are administered to the mice every day.

Row | Structure (SMILES) | effect on nuclear morphology of control fibroblasts (control fibroblasts) | effect on the nuclear morphology improvement given by the pravastatin+zoledronate treatment (Zmpste24^−/− mouse cells) | effect on the nuclear morphology improvement given by the pravastatin+zoledronate treatment [2] | prelamin A level produced in healthy cells (prelamin A [3]) [%] | further results
1 | COC(=O)[C@H](CCSC)NC(=O)c1ccc(NC[C@@H](N)CS)cc1-c1ccccc1 [FTI-277] | – | – | – | – | farnesylated and carboxymethylated progerin peak (progerin): considerable reduced; geranylgeranylated progerin peptides (progerin): appears geranylgeranylated and phosphoryl; geranyl-geranylated prelamin A peptide (prelamin A [1]): detected a peptide which mass is compatible with a geranyl-geranylated fragment of the prelamine A; quantity of farnesylated prelamin A (prelamin A [1]): reduction in the quantity of farnesyled prelamine A
2 | CC(C)=CCCC(C)=CCCC(C)=CCO [farnesol] | Neither farnesol nor geranylgeraniol have any effect | nullify the effect of the pravastatin+zoledronate treatment | nullifies the effect of the pravastatin+zoledronate treatment | – | –
3 | CC(C)=CCC/C(C)=C/CC/C(C)=C/CC/C(C)=C/CO [geranylgeraniol] | Neither farnesol nor geranylgeraniol have any effect | nullify the effect of the pravastatin+zoledronate treatment | blocks the effect of the treatment | – | –
4 | CC[C@H](C)C(=O)O[C@H]1C[C@H](O)C=C2C=C[C@H](C)[C@H](CC[C@@H](O)C[C@@H](O)CC(=O)O)[C@H]21 [pravastatin] | – | – | – | 25 | rate of deformed nuclei (sign of toxicity on healthy cells) (healthy cells): around 12%
5 | O=P(O)(O)C(O)(Cn1ccnc1)P(=O)(O)O [zoledronate, (1-hydroxy-2-imidazol-1-yl-1-phosphono-ethyl) phosphonic acid] | – | – | – | 15 | lifespan of Zmpste24^−/− mice, drug in isolation (Zmpste24^−/− mice): neither of the drugs in isolation, pravastatin or zoledronate, increases the lifespan

— patent publication US9545412B2, “Composition and methods used during anti-HIV treatment” (UNIVERSITE D'AIX-MARSEILLE, priority 2008, dated 2017)
